Assay results from patent US8053627B2, “Methods for treating demyelination disorders” (University of Chicago, priority 2005, dated 2011).

What was measured:
[1] = tested on: Hippocampal organotypic cultures; assay: Hippocampal organotypic cultures (HOC), in vitro model of myelination, MBP Western blot; assay type: cell-based; conditions: 7 days of 100 U/ml IFN-γ exposure
Procedure: HOCs, were prepared and maintained as described previously (Kunkler and Kraig (1997) J Cereb Blood Flow Metab. 17:2643), and were maintained in vitro for 7 days before use. SAL at various concentrations was combined with 100 U/ml IFN-γ and added to the HOC cultures for 7 days. […] After 7 days of 100 U/ml IFN-γ exposure, the levels of MBP decreased approximately 80% in the HOCs (FIG. 29).

rat oligodendrocytes = assay: Cultured rat oligodendrocytes treated with recombinant rat IFN-γ; assay type: cell-based
Procedure: To test whether apoptosis of oligodendrocytes that is induced by INF-γ affects ER stress, the effect on the morphology, the degree of apoptosis and the expression of ER markers was studied in a culture of oligodendrocyte precursor cells (OPC). Oligodendrocyte progenitors were cultured from neonatal rat brains (Baerwald, et al. (1998) J. Neurosci Res. 52: 230-239). A mixed glial culture was grown in flasks in medium containing 10% fetal bovine serum (FBS), and when the astrocyte layer became confluent (10-14 days), oligodendrocyte progenitors were separated from astrocytes and microglia using an orbital shaker. Cells, greater than 95% of which were A2B5 positive, GFAP negative and CD11b negative, were cultured in 0.5% FBS containing medium, which also contained PDGF (10 ng/ml) and FGF (5 ng/ml) (both from R&D Systems, Minneapolis, Minn.). Then cells were switched to 0.5% FBS medium without PDGF and FGF for differentiation. After 5 days in the differentiating medium, approximately 40% of cells were positive for myelin protein 2′3′-cyclic nucleotide 3′-phosphodiestaerase (CNP). 70 U/ml recombinant rat IFN-γ (Calbiochem, La Jolla, Calif.) was added to the cells that had been allowed to differentiation for 5 days. […] To examine the oligodendroglial response to general ER stress-inducing agents, progenitor cells that had been cultured in differentaition medium for 5 or 7 days were treated with 2 μg/ml of tunicamycin (Sigma Aldrich) for 6 hours.
The level of apoptosis of the OPC cells was determined by double staining CNP (1:200; Sternberger Monoclonals, Lutherville, Md.) and TUNEL using the ApopTag Kit (Serologicals Corp., Norcross, Calif.) and following the manufacturer's instructions. Apoptosis was also evaluated by measuring the activity of caspase-3 in oligodendrocyte lysates using the Fluorimetric Caspase 3 Assay Kit (Sigma, St. Louis, Mo.), according to the manufacturer's instructions.
To determine whether INF-γ affects ER function, the RNA expression of ER markers binding immunoglobulin protein (BIP), CAAT enhancer binding protein homologous protein (CHOP), and caspase 12 was determined using real time PCR. RNA was isolated from cultured cells and mice brain using Trizol reagent (Invitrogen, Carlsbad, Calif.) and treated with DNAaseI (Invitrogen) to eliminate genomic DNA. Reverse transcription was performed using Superscript First Strand Synthesis System for RT-PCR kit (Invitrogen). Real-time PCR was performed with iQ Supermix (Bio-Rad, Hercules, Calif.) on a Bio-Rad iQ real-time PCR detection system (Bio-Rad). The following primers and probes (Integrated DNA Technologies Inc., Coralville, Iowa) for real-time PCR were used: mouse CHOP sense primer […] (SEQ ID NO: 34); mouse CHOP antisense primer […] (SEQ ID NO: 35); CHOP probe […] (SEQ ID NO: 36); mouse BIP sense primer […] (SEQ I DNO: 31); mouse BIP antisense primer […] (SEQ ID NO: 32); BIP probe […] (SEQ ID NO: 33); mouse caspase 12 sense primer […] (SEQ ID NO: 37); and mouse caspase antisense primer […] (SEQ ID NO: 38).
To determine the effect of INF-γ on the level of phosphorylated eIF-2α and caspase 12 proteins, western blot analysis was performed using the following antibodies anti-eIF-2α (1:500; Santa Cruz), anti-p-eIF-2α (1:1000, Cell signaling Technology), anti-caspase-12 (1:500; Santa Cruz) and anti-actin (1:1000; Sigma, St Louis, Mo.), and according to the following protocol. […]

BIP, CHOP, p-eIF-2α = assay: ER stress markers in corpus callosum during remyelination (real time PCR, Western blot); assay type: in vivo; conditions: DOX− mice
Procedure: Repression of remyelination by IFN-γ is associated with ER stress. […] To determine whether IFN-γ interferes with endoplasmic reticulum (ER) function in remyelinating oligodendrocytes, the expression of ER stress markers was monitored in the corpus callosum of mice expressing IFN-γ. The study was performed using the transgenic mice described in Example 1.
The level of mRNA encoding ER stress associated genes binding immunoglobulin protein/78 KDa glucose regulated protein (BIP/GRP78) and the CAATT enhancer-binding protein homologous protein/growth and DNA damage protein 153 (CHOP/GADD153), was determined using real time PCR, as described in Example 1 in the corpus callosum of the cuprizone treated mice of Example 1. The probes, sense and antisense primers that were used were: […]
The level of phosphorylated eIF-2α, which inhibits nucleotide exchange on the eIF-2 complex and attenuates most protein synthesis, was analyzed by Western blot, and the expression was colocalized by immunostaining CC1 antibodies as described above. Western blot analysis was performed as follows. The corpus callosum from 3 mice was rinsed in ice cold phosphate-buffered saline (PBS) and pooled, and immediately homogenized in 5 volumes of Triton X-100 buffer (20 mM HEPES pH 7.5, 150 mM NaCl, 1% Triton X-100, 10% glycerol, 1 mM EDTA, 10 mM tetrasodium pyrophosphate, 100 mM NaF, 17.5 mM β-glycerophosphate, 10 mM phenylmethylsulfonyl fluoride, 15 μg/ml aprotonin, and 6 μg/ml pepstatin A) using a motorized homogenizer. After incubation on ice for 15 min, the extracts were cleared by centrifugation at 14,000 rpm twice for 30 min each. The protein content of each extract was […] by protein assay (Bio-Rad). The extracts (40 μg) were separated by sodium dodecyl sulfate-polyacrylamide gel electrophoresis and transferred to nitrocellulose. […] The following primary antibodies were used: anti-eIF-2α (1:500; Santa Cruz, Santa Cruz, Calif.), anti-p-eIF-2α (1:1000, Cell signaling Technology), anti-CHOP (1:500; Santa Cruz) and anti-actin (1:1000; Sigma, St Louis, Mo.).

Substance: IFN-γ: pleotropic cytokine secreted by activated T lymphocytes and natural killer cells; delivered to the CNS by transgene or added as recombinant protein
- decrease of MBP levels in the HOCs [1]: approximately 80%
- caspase-3 activity in cell lysates (rat oligodendrocytes; 70 U/ml IFN-γ): markedly increased
- caspase-12 expression (real-time PCR) (rat oligodendrocytes; 70 U/ml IFN-γ): induction of caspase-12 was observed
- level of phosphorylated eIF-2α (Western blot) (rat oligodendrocytes; 70 U/ml IFN-γ): significantly elevated
- apoptosis (TUNEL and CNP double labeling) (rat oligodendrocytes; 70 U/ml IFN-γ for 48 h): induced apoptosis in a significant number of oligodendrocytes
- cell morphology (rat oligodendrocytes; 70 U/ml IFN-γ for 48 h, cells differentiated 5 days): abnormal morphological changes
- level of the active fragment of caspase-12 (Western blot) (rat oligodendrocytes; after 48 h of IFN-γ treatment): strongly elevated
- BIP mRNA increase vs control DOX+ (BIP, CHOP, p-eIF-2α): approximately 2 fold
- CHOP mRNA increase vs control DOX+ (BIP, CHOP, p-eIF-2α): approximately 2 fold
- CHOP protein elevation (Western blot) (BIP, CHOP, p-eIF-2α): approximately 1.7 fold
- phosphorylated eIF-2α elevation (Western blot) (BIP, CHOP, p-eIF-2α): approximately 1.8 fold
